Assay results: patent US6949250B2, “Selective algaecides for control of cyanochloronta” (The United States of America as represented by the …, priority 2002, dated 2005)

How the values were obtained:
Format in all cases: in vivo
chlorophyll a = assay: DNA2-59-1 second pond efficacy study: chlorophyll a; settings: 0.3 μM, for three days after application
Experimental: (§1) The method described by Schrader et al. (2000) was used to determine the potential for using the anthraquinone derivatives as selective algicides in catfish aquaculture ponds. All catfish ponds used in efficacy tests were maintained using commercial pond management practices and were located at the Thad Cochran Pond Facility, Mississippi State University, Stoneville, Miss. Anthraquinone analogs were dissolved in deionized water before application to water within the limnocorrals.
(§2) Limnocorrals in which test compound was applied to the enclosed water were randomly selected, and control (no test compound applied) limnocorrals were included in each efficacy study. For each sampling, two water samples (250 mL) were obtained from within each limnocorral (approximately 6-8 cm below the water surface and from opposite sides of each limnocorral) and mixed together in a 500 mL sample bottle to provide a representative sample of the water contained within the limnocorral.
(§3) In the second efficacy test with DNA2-59-1, six limnocorrals (1.53 m in diameter and 1.53 m high) were placed in a 0.1-ha earthen pond containing a heavy bloom of O. perornata. The same delay in mixing the water within the limnocorrals used in the first efficacy study was utilized. Water within three randomly selected limnocorrals received an application rate of 0.3 μM DNA2-59-1, and the other three limnocorrals were controls. […]

Raphidiopsis brookii [1] = assay: DNA2-59-1 third pond efficacy study: Raphidiopsis brookii abundance; settings: 0.3 μM, one day after application
Experimental: as §1, §2
(§4) For the third efficacy test with DNA2-59-1, twelve limnocorrals (2.44 m in diameter and 1.53 m high) were placed in a 4-ha earthen pond containing a bloom of O. perornata. […]

Oscillatoria perornata = assay: DNA2-59-1 first pond efficacy study: O. perornata abundance; settings: first study, 0.1, 0.3 and 1 μM
Experimental: as §1
Limnocorrals in which test compound was applied to the enclosed water were randomly selected, and control (no test compound applied) limnocorrals were included in each efficacy study. […]
In the first study, application rates of 0.1 μM (37.7 μg/L), 0.3 μM ([…]), and 1.0 μM (377 μg/L) of DNA2-59-1 were tested using limnocorrals (three replicates per concentration) that were of the same type used for testing DNA1-19-1. […] Water samples were also analyzed to determine the persistence of DNA2-59-1 in the pond water, and this analysis was performed by using high-pressure liquid chromatography (HPLC) (method and results are described later).

green algae = assay: DNA2-59-1 third pond efficacy study: green algae abundance; settings: 0.3 μM, from three days after application
Experimental: as §1, §2, §4

Raphidiopsis brookii [2] = assay: DNA2-59-1 second pond efficacy study: Raphidiopsis brookii abundance; settings: 0.3 μM, within three days of application
Experimental: as §1, §2, §3

Cylindrospermopsis spp. = assay: DNA2-59-1 third pond efficacy study: Cylindrospermopsis spp. abundance; settings: 0.3 μM, one day after application
Experimental: as §1, §2, §4

Question: Which results are given for `CC(C)NCc1ccc2c(c1)C(=O)c1ccccc1C2=O` [DNA2-59-1, 2-[methylamino-N-(1′-methylethyl)]-9,10-anthraquinone monophosphate]?
Answer: Chlorophyll a levels (result in words) (chlorophyll a): significantly lower; Numbers of Raphidiopsis brookii (result in words) (Raphidiopsis brookii [1]): significantly reduced; numbers of O. perornata filaments compared to controls (result in words) (Oscillatoria perornata): significantly reduced; Numbers of green algae vs control limnocorrals (result in words) (green algae): significantly higher; Numbers of Raphidiopsis brookii (result in words) (Raphidiopsis brookii [2]): significantly and dramatically reduced; Numbers of Cylindrospermopsis spp. (result in words) (Cylindrospermopsis spp.): significantly reduced
